Assay results as given in patent US20180207228A1, “PEPTIDE COMBINATIONS AND USES THEREOF FOR TREATING GRASS ALLERGY” (ALK-Abelló A/S, priority 2015, published 2018).
Where no end group is shown, it is not given here.

Tested on: allergen specific T cells
Test: T cell proliferation assay (72 h) on donor derived T cell lines (TCL02/TCL03)
Format: cell-based, human
Conditions: for Proliferation % donor coverage (TCL-02 DK1): T cell lines TCL-02 DK1, 30 donors, hit criteria SI>=2, CPM>=1000; for Proliferation strength (TCL-02 DK1): T cell lines TCL-02 DK1, strength of response (average relative magnitude); for donor coverage of homologue peptide compared with native Phleum peptide / T cell coverage of modified peptide compared to the parent peptide: 2 μg/ml; for donor coverage of homologue peptide compared with native Phleum peptide: TCL-02 DK-2, 21 donors; for T cell coverage of modified peptide compared to the parent peptide: TCL03-DK1 and DK2, 27 donors; for average relative magnitude: reference peptides of WO2010/089554, proliferation only
Excerpt: Isolated PBMCs (peripheral blood mononuclear cells) obtained from the donors described in Example 2 were CD8 depleted and the T cell lines were established by stimulating the cultures with nPhl p1, mix of nPhl p 2 and […] 5 and […] established for each of the donors tested by stimulating with the mixture of above listed allergens. Grass allergic donors were recruited (cohort DK1 including 30 grass allergic individuals, DK2 including 24 grass allergic individuals and US1 including 15 grass allergic individuals). PBMCs were isolated from freshly drawn heparinized blood by gradient centrifugation on lymphoprep (Nycomed, Norway), washed twice and re-suspended in RPMI 1640 medium with HEPES and ultraglutamine (Cambrex, Belgium) supplemented with 5% v/v human AB-serum (Cambrex, Belgium), 100 units/ml penicillin, and 0.1 mg/ml streptomycin (Sigma, St Louis, USA) (referred to as 5% AB-medium). Aliquots of the isolated PBMCs were frozen and were thawed later to stimulate the T cell lines. Additionally either fresh or thawed PBMCs were used as antigen presenting cells (APCs) in the proliferation assay as described later. In some cases the PBMCs were freezed at this stage and thawed later on to continue the experiment as described in the following. The isolated PBMCs (fresh or thawed) were CD8 depleted by MACS magnetic depletion according to the manufacturer's instructions (Miltenyi Biotec, Bergisch Gladbach, Germany). On day 0 the CD8-depleted PBMCs (2×10^6/ml) were stimulated in 1 ml bulk cultures in AB medium in 24 well plates (Nunc, Denmark) with the mixture of natural allergens: nPhl p 1 (0.5 μg/ml), mix of […]). […] On day 14 cells were harvested to obtain T cell line generation 01 (referred to as TCL01). Restimulation of T cell lines were performed in AB-medium with the thawed autologous PBMCs (10^6/well, irradiated 2500 Rad), the above mixture of natural allergens (concentration as mentioned above), and PHA-P (0.5 μg/ml, Difco, Detroit, Mich., USA). rIL-2 was added at day 17, 18 and 19. On day 24 cells were harvested to obtain T cell line generation 02 (referred as TCL02). T cells were isolated, washed, counted and used for T cell proliferation assay as described later. Remaining cells were frozen for later thawing and re-stimulations. The T cell line generation 2 (TCL02) were thawed and were re-stimulated with allogeneic Epstein Bar Virus transformed lymphoblastoid cell lines (EBV) B cells (JY cells, 10^5/well, irradiated 3500 Rad), allogeneic PBMCs (10^6/well, irradiated 2500 Rad), and 0.5 μg/ml PHA-P and subsequent addition of rIL-2 at days 3-5 to generate T cell line generation 03 (referred to as TCL03). […] To summarize ELISpot experiments were carried out at day 14 (with TCL01) and proliferation assay on either day 24 (with TCL02) or at day 34 (with TCL03). […] To ensure that all T cell epitopes regions from the major and intermediate grass allergens of the grass were identified T cell screening was carried out with either overlapping peptides or selected peptides. […] These were overlapping 20-mer peptides spanning the entire full length amino acid sequence of […] and selected high binder peptides from Phl p 4 were tested. Additionally 21, 15 mer peptides were tested which were derived from various group 1 and 5 allergens. Also, 67 peptides from homologous grass allergens were tested. Finally some reference peptides and mixes thereof were also tested. The 15-mer peptides were selected on the basis of predicted and measured promiscuous HLA binding and of sequence homology between known proteins sequences from the relevant pooideae grasses and the Bermuda grass. […] To get comprehensive data from all the donors the peptides were tested in both Fluorospot/Elispot (day 14, TCL01) and proliferation (day 24, TCL02).

Compound | donor coverage of homologue peptide compared with native Phleum peptide | also measured
CC[C@H](C)[C@H](NC(=O)[C@H](C)NC(=O)[C@H](CCCCN)NC(=O)[C@@H](NC(=O)[C@H](CC(C)C)NC(=O)[C@H](C)NC(=O)[C@H](C)NC(=O)[C@H](CCC(=O)O)NC(=O)[C@H](Cc1ccccc1)NC(=O)[C@@H](NC(=O)[C@H](C)NC(=O)[C@H](Cc1ccc(O)cc1)NC(=O)[C@H](CCCCN)NC(=O)[C@@H](NC(=O)[C@H](CCC(=O)O)NC(=O)[C@@H]1CCCN1C(=O)[C@@H](N)CCCCN)C(C)C)C(C)C)[C@@H](C)O)C(=O)N[C@H](C(=O)O)[C@@H](C)O [compound 242] |  | Proliferation % donor coverage (TCL-02 DK1): 48.28%; Proliferation strength (TCL-02 DK1): 7.20
CC[C@H](C)[C@H](NC(=O)[C@H](CCCCN)NC(=O)[C@H](CCC(=O)O)NC(=O)[C@@H](NC(=O)[C@H](CC(C)C)NC(=O)[C@H](CCCCN)NC(=O)[C@H](CCC(N)=O)NC(=O)[C@@H](N)CCC(=O)O)[C@@H](C)CC)C(=O)N[C@@H](CC(N)=O)C(=O)N[C@@H](C)C(=O)NCC(=O)N[C@@H](Cc1ccccc1)C(=O)N[C@@H](CCCCN)C(=O)N[C@@H](C)C(=O)N[C@@H](C)C(=O)N[C@H](C(=O)N[C@@H](C)C(=O)N[C@@H](C)C(=O)N[C@@H](C)C(=O)N[C@@H](C)C(=O)O)C(C)C [compound 341] | better donor coverage than the native peptides | 
CC[C@H](C)[C@H](NC(=O)[C@@H](NC(=O)[C@H](CCCNC(=N)N)NC(=O)[C@H](CC(C)C)NC(=O)[C@H](C)NC(=O)[C@H](CCC(=O)O)NC(=O)[C@@H](NC(=O)[C@H](CC(C)C)NC(=O)[C@@H](NC(=O)[C@H](C)NC(=O)[C@@H](NC(=O)[C@H](Cc1ccc(O)cc1)NC(=O)[C@H](C)NC(=O)[C@H](CC(=O)O)NC(=O)[C@H](Cc1ccc(O)cc1)NC(=O)[C@H](CCCCN)NC(=O)[C@H](C)NC(=O)[C@@H](N)CCC(=O)O)C(C)C)[C@@H](C)O)[C@@H](C)O)C(C)C)C(=O)N[C@@H](C)C(=O)NCC(=O)O [compound 345] | comparable donor coverage | 
CC(C)[C@H](NC(=O)[C@@H](NC(=O)[C@H](Cc1ccccc1)NC(=O)[C@H](CCCCN)NC(=O)[C@H](CC(=O)O)NC(=O)[C@H](CC(N)=O)NC(=O)[C@H](C)NC(=O)[C@@H]1CCCN1C(=O)[C@H](C)NC(=O)[C@H](C)NC(=O)[C@H](CC(N)=O)NC(=O)[C@H](C)NC(=O)[C@H](C)NC(=O)[C@@H](NC(=O)[C@H](C)NC(=O)[C@H](C)NC(=O)[C@@H](NC(=O)[C@@H](N)CCCNC(=N)N)[C@@H](C)O)[C@@H](C)O)[C@@H](C)O)C(=O)N[C@@H](Cc1ccccc1)C(=O)N[C@@H](CCC(=O)O)C(=O)O [compound 348] | comparable donor coverage | 
CC[C@H](C)[C@H](NC(=O)[C@H](Cc1ccccc1)NC(=O)[C@H](C)NC(=O)[C@H](CC(=O)O)NC(=O)[C@H](Cc1ccc(O)cc1)NC(=O)[C@H](CCCCN)NC(=O)[C@H](C)NC(=O)[C@@H](N)CCC(=O)O)C(=O)N[C@@H](C)C(=O)N[C@@H](C)C(=O)N[C@@H](CC(C)C)C(=O)N[C@H](C(=O)N[C@@H](CCC(=O)O)C(=O)N[C@@H](C)C(=O)N[C@@H](CC(C)C)C(=O)N[C@@H](CCCNC(=N)N)C(=O)N[C@H](C(=O)N[C@H](C(=O)N[C@@H](C)C(=O)NCC(=O)O)[C@@H](C)CC)C(C)C)[C@@H](C)O [compound 358] | comparable donor coverage | 
APEVKYAVFEAGLTKAITAM-OH [compound 365] | loose some of the donor coverage | 
ASRRPWWASVPPADKFKTFA-OH [compound 356] | loose some of the donor coverage | 
Ac-WGAIWRIDTPDKLTGPFTVR-NH2 [compound 259] |  | T cell coverage of modified peptide compared to the parent peptide: markedly increased T cell coverage
DKYKTFVETFGTATNKAFVE-OH [compound 343] | better donor coverage than the native peptides | 
FIPMKSSWGA-OH [compound 135] |  | Proliferation % donor coverage (TCL-02 DK1): 13.79%; Proliferation strength (TCL-02 DK1): 1.50
GFKAAVAAAAVVPPADKYKT-OH [compound 342] | better donor coverage than the native peptides | 
GLGSRASYEIKSKEPVESSG-OH [compound 313] | low in donor coverage | 
GRGSGSSFEIKSTKPESSSG-OH [compound 301] | comparable to the native peptides | 
IDKVDAAYRTAATAANAAPA-OH [compound 347] | comparable donor coverage | 
IRLTSEGGAHLVQDDVIPAN-OH [compound 323] | low in donor coverage | 
KDKWIELKESWGAVWRIDTP-OH [compound 308] | comparable to the native peptides | 
KFIPTLVAAVKQAYAAKQ-OH [compound 138] |  | Proliferation % donor coverage (TCL-02 DK1): 31.03%; Proliferation strength (TCL-02 DK1): 4.20
KFIPTLVAAVKQAYAAKQAT-OH [compound 351] | loose some of the donor coverage | 

Compound | donor coverage of homologue peptide compared with native Phleum peptide | also measured
KKPEVKYAVFEAALTKAIT-OH [compound 143] |  | Proliferation % donor coverage (TCL-02 DK1): 48.28%; Proliferation strength (TCL-02 DK1): 7.50; average relative magnitude: around 8
KSSWGAIWRIDPKKPLK-OH [compound 136] |  | Proliferation % donor coverage (TCL-02 DK1): 17.24%; Proliferation strength (TCL-02 DK1): 1.90
KYDAYVATLTEALR-OH [compound 137] |  | Proliferation % donor coverage (TCL-02 DK1): 27.59%; Proliferation strength (TCL-02 DK1): 6.30
LKKAVTAMSEAEK-OH [compound 139] |  | Proliferation % donor coverage (TCL-02 DK1): 20.69%; Proliferation strength (TCL-02 DK1): 2.80
LVQDDVIPANWKPDTVYTSK-OH [compound 324] | low in donor coverage | 
PEVKYAVFEAALTKAIT-OH [compound 140] |  | Proliferation % donor coverage (TCL-02 DK1): 55.17%; Proliferation strength (TCL-02 DK1): 8.20; average relative magnitude: around 8
PTPRTPPLLPPPRARDKATL-OH [compound 355] | better donor coverage than the native peptides | 
SDEFIPMKSSWGAIWRIDPK-OH [compound 321] | comparable to the native peptides | 
SEFEDVIPEGWKADTSYSAK-OH [compound 311] | low in donor coverage | 
SGKAFGAMAKKGQED-OH [compound 134, SGKAFGAMAKKGQED] |  | Proliferation % donor coverage (TCL-02 DK1): 27.59%; Proliferation strength (TCL-02 DK1): 4.00
SLGAAYDSYKFIPTLVAAVK-OH [compound 350] | loose some of the donor coverage | 
TAATPATPATPATPAAVPSG [compound 340] | better donor coverage than the native peptides | 
VRYTTEGGTKSEFEDVIPEG-OH [compound 310] | low in donor coverage | 
WGAIWRIDPKKPLKGPFSIR-OH [compound 322] | not recognized by the T cell lines | 
WGAIWRIDTPDKLTGPFTVR-NH2 [compound 258] |  | T cell coverage of modified peptide compared to the parent peptide: markedly increased T cell coverage
WGAVWRIDTPDKLTGPFTVR-OH [compound 309] | low in donor coverage | 
YHFDLSGHAFGSMAKKGEEQ-OH [compound 303] | comparable to the native peptides | 
YHFDLSGKAFGAMAKKGQED-OH [compound 316] | comparable to the native peptides | 
